# Laboratory results reported in ChEMBL document CHEMBL4020744 (Bioorg Med Chem Lett, 2017).
# Assays:
# Rift Valley fever virus = assay: Antiviral activity against Rift Valley fever virus infected in human HeLa cells preincubated for 2 to 3 hrs followed by viral infection measured after 3 days by fluorescence assay; assay type: functional, cell-based
# Lassa virus = assay: Antiviral activity against Lassa virus infected in human HuH7 cells pretreated for 2 to 3 hrs followed by viral infection measured after 3 days by fluorescence assay; assay type: functional, cell-based; details: Mammarenavirus lassaense, Huh-7
# Ebolavirus [1] = assay: Antiviral activity against Ebolavirus Makona infected in human HeLa cells preincubated for 2 hrs followed by viral infection measured after 15 to 20 hrs by Draq5 staining based assay; assay type: functional, cell-based, Zaire ebolavirus Makona; details: Orthoebolavirus
# Marburgvirus = assay: Antiviral activity against Marburg virus Ci67 infected in human HeLa cells preincubated for 2 hrs followed by viral infection measured after 15 to 20 hrs by Draq staining based assay; assay type: functional, cell-based, Lake Victoria marburgvirus - Ci67; details: Orthomarburgvirus
# [2] = Cytotoxicity against human HeLa cells after 2 hrs by Draq staining based assay; assay type: cell-based
# Huh-7 = assay: Cytotoxicity against human HuH7 cells after 2 to 3 hrs by CellTiter-Glo assay; assay type: cell-based
# Ebolavirus [3] = assay: Antiviral activity against Sudan virus Gulu infected in human HeLa cells preincubated with cells for 2 hrs followed by viral infection measured after 48 hrs by immunostaining based assay; assay type: functional, cell-based, Sudan ebolavirus; details: Orthoebolavirus
SMILES,EC50 (Rift Valley fever virus) [µM],EC50 (Lassa virus) [µM],EC50 (Ebolavirus [1]) [µM],EC50 (Marburgvirus) [µM],CC50 at 2 h [2] [µM],CC50 (Huh-7) [µM],EC50 (Ebolavirus [3]) [µM]
CCC(CC)COC(=O)[C@H](C)N[P@](=O)(OCCOCn1cnc(-c2cnc(N)nc2OC)c1)Oc1ccccc1,> 50,> 50,29,62,> 100,> 50,7
COc1nc(N)ncc1-c1cn(COCCO)cn1,> 50,> 50,> 100,> 100,> 100,> 50,> 100
COc1nc(N)ncc1-c1cn(COCCOC(C)=O)cn1,–,–,44,70,> 100,–,20
